Measured values taken from PMC7587356, “High-Throughput Screening for Inhibitors of the SARS-CoV-2 Protease Using a FRET-Biosensor” (Molecules, 2020).
Where two headings read alike, the source gives them in different places.

Columns and labels:
SARS-CoV-2 3CLpro [1] = target: T1, SARS-CoV-2 3CLpro (Severe acute respiratory syndrome coronavirus 2, UniProt P0DTD1); assay: biochemical; assay type: biochemical; conditions: for mean (LOPAC screen with protease) / Replicate_1 (LOPAC screen with protease) / Replicate_2 (LOPAC screen with protease): sheet LOPAC_screen_w_protease, primary screen at 5 µM; for mean (LOPAC screen with protease): mean of two replicates; for Replicate_1 (LOPAC screen with protease): replicate 1; for Replicate_2 (LOPAC screen with protease): replicate 2; for inhibition at 5 µM: 4 h
SARS-CoV-2 3CLpro [2] = target: T1, SARS-CoV-2 3CLpro; assay: biochemical; assay type: biochemical
[3] = with 0.01% Triton X-100; mean ± SD of triplicate; 4 h, 30 °C; read-out: A) EC50 with Triton X-100
[4] = without Triton X-100; mean ± SD of triplicate; 4 h, 30 °C; read-out: B) EC50 without Triton X-100
[5] = with 0.01% Triton X-100, read-out: EC50
[6] = read-out: Replicate_1 (LOPAC screen with protease)
[7] = read-out: Replicate_2 (LOPAC screen with protease)
[8] = read-out: mean (LOPAC screen with protease)
[9] = EC50 with Triton X-100 / EC50 without Triton X-100, ratio greater than 2 suggests aggregation-based inhibitor

## O=Nc1ccc2oc(=O)ccc2c1 [6-Nitroso-1,2-benzopyrone, reference compound]
SARS-CoV-2 3CLpro [1]
  mean (LOPAC screen with protease): 91.133
  Replicate_1 (LOPAC screen with protease): 92.4944
  Replicate_2 (LOPAC screen with protease): 89.7716
SARS-CoV-2 3CLpro [2]
  Ratio (A/B): 1.6
SARS-CoV-2 3CLpro [2]; [3]
  EC50: 0.882 ± 0.11 µM
SARS-CoV-2 3CLpro [2]; [4]
  EC50: 0.559 ± 0.123 µM

## C=CCN1CCc2cc(O)c(O)cc2C(c2ccccc2)C1 (racemic) [N-allyl-(±)-SKF 38393]
SARS-CoV-2 3CLpro [2]; [3]
  EC50: 3.34 ± 0.805 µM
SARS-CoV-2 3CLpro [2]; [4]
  EC50: 1.65 ± 0.462 µM

## CC(C)C[C@H](N)CS [l-Leucinethiol]
SARS-CoV-2 3CLpro [2]
  Ratio (A/B): 2.2
SARS-CoV-2 3CLpro [2]; [3]
  EC50: 4.38 ± 0.77 µM
SARS-CoV-2 3CLpro [2]; [4]
  EC50: 1.95 ± 0.11 µM

## Oc1ccc(Cn2cc[nH]c2=S)cc1 [1-Hbit]
SARS-CoV-2 3CLpro [2]; [3]
  EC50: 7.08 ± 5.15 µM
SARS-CoV-2 3CLpro [2]; [4]
  EC50: > 20 µM

## Oc1cc2c(cc1O)[C@H]1c3ccccc3CN[C@@H]1CC2 (racemic) [Dihydrexidine]
SARS-CoV-2 3CLpro [2]
  Ratio (A/B): 1.1
SARS-CoV-2 3CLpro [2]; [3]
  EC50: 0.705 ± 0.153 µM
SARS-CoV-2 3CLpro [2]; [4]
  EC50: 0.622 ± 0.072 µM

## Br.Oc1ccc(C2CNCc3sccc32)cc1O (stereo not drawn) [SKF 89626, reference compound]
SARS-CoV-2 3CLpro [1]
  mean (LOPAC screen with protease): 42.8167
  Replicate_1 (LOPAC screen with protease): 43.262
  Replicate_2 (LOPAC screen with protease): 42.3715
SARS-CoV-2 3CLpro [2]
  Ratio (A/B): 1.2
SARS-CoV-2 3CLpro [2]; [3]
  EC50: 3.53 ± 0.565 µM
SARS-CoV-2 3CLpro [2]; [4]
  EC50: 2.83 ± 1.97 µM

## O=C(N[C@@H](Cc1ccccc1)C(=O)CCl)OCc1ccccc1 [ZPCK, Z-L-Phe chloromethyl ketone]
SARS-CoV-2 3CLpro [2]
  Ratio (A/B): 1.7
SARS-CoV-2 3CLpro [2]; [3]
  EC50: 0.234 ± 0.085 µM
SARS-CoV-2 3CLpro [2]; [5]
  EC50: 0.23 µM
SARS-CoV-2 3CLpro [2]; [4]
  EC50: 0.136 ± 0.021 µM

## O=c1cc(O)cc(/C=C/c2ccc(O)c(O)c2)o1 [Hispidin, reference compound]
SARS-CoV-2 3CLpro [1]; [6]
  inhibition at 5 µM: 46.3%
SARS-CoV-2 3CLpro [1]; [7]
  inhibition at 5 µM: 38.9%
SARS-CoV-2 3CLpro [1]; [8]
  inhibition at 5 µM: 42.6%
SARS-CoV-2 3CLpro [2]
  Ratio (A/B): 2.8
SARS-CoV-2 3CLpro [2]; A) EC50 with Triton X-100
  EC50: 5 ± 0.554 µM
SARS-CoV-2 3CLpro [2]; B) EC50 without Triton X-100
  EC50: 1.81 ± 0.828 µM

## N#CC(C#N)=C(N)/C(C#N)=C/c1cc(O)c(O)c(O)c1 [Tyrphostin 51, reference compound]
SARS-CoV-2 3CLpro [1]; [6]
  inhibition at 5 µM: 28%
SARS-CoV-2 3CLpro [1]; [7]
  inhibition at 5 µM: 28.9%
SARS-CoV-2 3CLpro [1]; [8]
  inhibition at 5 µM: 28.5%
SARS-CoV-2 3CLpro [2]
  Ratio (A/B): 2.1
SARS-CoV-2 3CLpro [2]; [3]
  EC50: 19 ± 14.2 µM
SARS-CoV-2 3CLpro [2]; [4]
  EC50: 9.12 ± 5.3 µM

## C=CCN1CCc2cccc3c2[C@H]1Cc1ccc(O)c(O)c1-3 [R(−)-N-Allylnorapomorphine]
SARS-CoV-2 3CLpro [2]; [9]
  Ratio (A/B): 0.9
SARS-CoV-2 3CLpro [2]; [3]
  EC50: 0.346 ± 0.08 µM
SARS-CoV-2 3CLpro [2]; [4]
  EC50: 0.379 ± 0.083 µM

## Br.CCCN1CCc2cc(O)cc3c2[C@H]1Cc1ccc(O)c(O)c1-3 [R(−)-2-OH-NPA, R(−)-2,10,11-Trihydroxy-N-propylnoraporphine]
SARS-CoV-2 3CLpro [2]; [9]
  Ratio (A/B): 1.0
SARS-CoV-2 3CLpro [2]; [3]
  EC50: 0.746 ± 0.091 µM
SARS-CoV-2 3CLpro [2]; [4]
  EC50: 0.715 ± 0.133 µM

## Oc1cc2c(c(Cl)c1O)CCNCC2c1ccccc1 (racemic) [(±)-6-Chloro-PB]
SARS-CoV-2 3CLpro [2]
  Ratio (A/B): 1.4
SARS-CoV-2 3CLpro [2]; [3]
  EC50: 1.44 ± 0.353 µM
SARS-CoV-2 3CLpro [2]; [4]
  EC50: 1.02 ± 0.289 µM

## CN1CCc2cc(O)cc3c2[C@H]1Cc1ccc(O)c(O)c1-3 [R(−)-2-Hydroxyapomorphine]
SARS-CoV-2 3CLpro [2]; [9]
  Ratio (A/B): 1.1
SARS-CoV-2 3CLpro [2]; [3]
  EC50: 0.45 ± 0.078 µM
SARS-CoV-2 3CLpro [2]; [4]
  EC50: 0.42 ± 0.101 µM

## R(−)-Propylnorapomorphine [R(−)-NPA]
SARS-CoV-2 3CLpro [2]
  Ratio (A/B): 1.0
SARS-CoV-2 3CLpro [2]; [3]
  EC50: 0.426 ± 0.017 µM
SARS-CoV-2 3CLpro [2]; [4]
  EC50: 0.426 ± 0.077 µM

## O=C(O)Cc1ccc(O)c(O)c1 [DOPAC]
SARS-CoV-2 3CLpro [2]
  Ratio (A/B): 1.3
SARS-CoV-2 3CLpro [2]; [3]
  EC50: 3.09 ± 0.226 µM
SARS-CoV-2 3CLpro [2]; [4]
  EC50: 2.46 ± 0.117 µM

## CN(C)C(=O)/N=N/C(=O)N(C)C [Diamide]
SARS-CoV-2 3CLpro [2]; [3]
  EC50: 17.1 ± 20.8 µM
SARS-CoV-2 3CLpro [2]; [4]
  EC50: > 20 µM

## C=CCN1CCc2c(cc(O)c(O)c2Br)C(c2ccccc2)C1 (stereo not drawn) [R(+)-6-Bromo-APB]
SARS-CoV-2 3CLpro [2]; [3]
  EC50: > 20 µM
SARS-CoV-2 3CLpro [2]; [4]
  EC50: > 20 µM

## Oc1ccc2c3c1O[C@H]1c4[nH]c5c(c4C[C@@]4(O)[C@@H](C2)N(CC2CC2)CC[C@]314)C[C@@]1(O)[C@H]2Cc3ccc(O)c4c3[C@@]1(CCN2CC1CC1)[C@H]5O4 [nor-Binaltorphimine]
SARS-CoV-2 3CLpro [2]; [9]
  Ratio (A/B): 2.0
SARS-CoV-2 3CLpro [2]; [3]
  EC50: 5.2 ± 1.16 µM
SARS-CoV-2 3CLpro [2]; [4]
  EC50: 2.6 ± 1.49 µM

## CC(=O)[C@]1(O)Cc2c(O)c3c(c(O)c2[C@@H](O[C@H]2C[C@H](N)[C@H](O)[C@H](C)O2)C1)C(=O)c1ccccc1C3=O [Idarubicin]
SARS-CoV-2 3CLpro [2]; [3]
  EC50: > 20 µM
SARS-CoV-2 3CLpro [2]; [4]
  EC50: > 20 µM

## CN1CC[C@@]2(C)c3cc(O)ccc3N(C)[C@@H]12 [(−)-Eseroline]
SARS-CoV-2 3CLpro [2]
  Ratio (A/B): 1.3
SARS-CoV-2 3CLpro [2]; [3]
  EC50: 0.994 ± 0.197 µM
SARS-CoV-2 3CLpro [2]; [4]
  EC50: 0.738 ± 0.201 µM

## CN1CCc2c(cc(O)c(O)c2Cl)C(c2cccc(Cl)c2)C1 (stereo not drawn) [SKF 83565]
SARS-CoV-2 3CLpro [2]; [3]
  EC50: > 20 µM
SARS-CoV-2 3CLpro [2]; [4]
  EC50: 6.03 ± 3.63 µM

## CN1CCc2cc(O)c(O)cc2C(c2ccccc2)C1 (stereo not drawn) [SKF 75670]
SARS-CoV-2 3CLpro [2]; [3]
  EC50: 17.8 ± 8.36 µM
SARS-CoV-2 3CLpro [2]; [4]
  EC50: > 20 µM

## Cc1ccc(S(=O)(=O)N[C@@H](CCCCN)C(=O)CCl)cc1 [TLCK, Tosyl-L-Lys chloromethyl ketone]
SARS-CoV-2 3CLpro [2]; [3]
  EC50: 10.6 ± 0.881 µM
SARS-CoV-2 3CLpro [2]; [5]
  EC50: 10.6 µM
SARS-CoV-2 3CLpro [2]; [4]
  EC50: > 20 µM
